{
  "source": "paper PMC5136666",
  "about": "“Epobis is a Nonerythropoietic and Neuroprotective Agonist of the Erythropoietin Receptor with Anti-Inflammatory and Memory Enhancing Effects” (Mediators of Inflammation, 2016)",
  "key": {"primary rat motoneurons": {"tested_on": "primary rat motoneurons", "assay": "Neurite outgrowth from primary motoneurons", "type": "cell-based", "settings": "24 h, bell-shaped concentration dependence, p < 0.0001, 3 independent experiments", "description": "Primary rat motoneurons were isolated as described previously. Briefly, the ventral horns of the lumbar spinal cord were dissected from Wistar rat embryos (E15). The dissociated motoneurons were plated at a density of 7,000 cells per well on laminin-coated (5 μg/mL; Sigma-Aldrich) 8-well LabTek Permanox slides (NUNC, Denmark). Neurons were stimulated with serially diluted Epobis peptide for 24 h, fixed with 4% formalin, stained with polyclonal rabbit anti-rat growth-associated protein-43 antibodies (1 : 1000; Millipore), and analyzed by computer-assisted fluorescence microscopy as described."}, "[1]": {"tested_on": "TNF secretion from AMJ2-C8 macrophages", "assay": "Macrophage activation assay (TNF secretion estimated from L-cell viability)", "type": "cell-based, mouse", "settings": "untreated ~48%, MTS, 4 experiments", "description": "The macrophage activation assay is used to estimate tumor necrosis factor (TNF) secretion from the macrophage cell line AMJ2-C8 (ATCC; Boras, Sweden). Fibroblastoid mouse L929 cells (L-cells; ECCC, Salisbury, UK) are sensitive to TNF upon exposure to actinomycin D, and L-cell survival can therefore be utilized as an indirect estimate of TNF concentrations. The assay was performed essentially as described previously. Briefly, AMJ2-C8 cells were plated in 6-well MultiDish plates (Nunc, Denmark) and treated with 100 μM hydrocortisone (Sigma-Aldrich, Brøndby, Denmark), […] (8.4 nM) rhEPO (Calbiochem, Merck Millipore, Denmark), or Epobis (0.9–8.1 μM) for 24 h. They were then exposed to 10 ng/mL interferon-γ (IFN-γ) (R&D Systems, UK) for 24 h to induce the production of TNF [34].\nL-cells were seeded in 96-well Multiwell plates (2 × 10^5 cells/mL, 100 μL/well; Nunc) and grown for 24 h. Then conditioned medium from stimulated macrophages was collected and added to the L-cells together with actinomycin D (Sigma, Sigma-Aldrich). L-cell viability was assayed 24 h later by the MTS assay (Promega, Madison, WI, USA) according to the manufacture's protocol. Cell viability was calculated as follows: (1) cell viability %=ODexperiment/ODcontrol×100. […]"}, "[2]": {"tested_on": "TNF secretion from rat primary microglia", "assay": "LPS-induced TNF release from rat primary microglia (ELISA)", "type": "cell-based", "settings": "0.9 μM, 1 h pretreatment, LPS 100 ng/mL 24 h, p < 0.05, 3 experiments", "description": "Mixed glial cultures were prepared from 1-day-old to 2-day-old Wistar rat pups as described previously. Briefly, cortices were dissected, roughly chopped, and incubated in prewarmed 0.5% trypsin for 10 min. Then Dulbecco's modified Eagle's medium (DMEM) plus GlutaMAX (culture media; Gibco) containing 10% fetal calf serum, penicillin (100 U/mL), and streptomycin (100 U/mL) was added and tissue was triturated. The suspension was centrifuged at 500 ×g for 10 min, and the resulting pellet was resuspended in culture media and plated in a poly-L-lysine-coated T180 flask. The mixed glial culture was grown for 2-3 weeks at 37°C in a humidified 5% CO2 : 95% air environment. The medium was changed first at day 2 after culture preparation and then every 5-6 days. […] Images were recorded using a Zeiss Axiovert 100 microscope mounted with an AxioCam MRm camera using the accompanying ZEN 2012 software.\nTo induce TNF secretion, microglia cells were treated with lipopolysaccharide (LPS; 100 ng/mL; Sigma) following 1 h pretreatment in the absence or presence of Epobis. Conditioned media were collected 24 h later and released TNF was determined using a rat TNF Ready-SET-Go!® ELISA kit according to the manufacturer's instructions (eBioscience, San Diego, USA)."}, "[3]": {"assay": "Detection of Epobis in plasma and cerebrospinal fluid", "type": "in vivo, Wistar rats", "settings": "rat", "description": "Detection of biotinylated Epobis in plasma was performed essentially as described previously. Briefly, 10 mg/kg Epobis was injected subcutaneously (s.c.) in anaesthetized 200 g Wistar rats, and blood samples were collected from the orbital plexus at selected time points. Cerebrospinal fluid (CSF) was sampled from the cisterna magna as described previously.\nSubsequently the concentrations of peptide in serum plasma and CSF were estimated using a competitive enzyme-linked immunosorbent assay, where all samples were run in duplicate."}, "[4]": {"tested_on": "hematocrit and hemoglobin levels in mice", "assay": "Hematopoiesis assay", "type": "in vivo", "settings": "10 mg/kg s.c. twice per week for 5 weeks, female C57BL/6J mice", "description": "Estimates of hematopoietic activity of Epobis in female C57BL/6J mice were performed essentially as described previously. Briefly, Epobis (10 mg/kg), EPO (10 mg/kg; Calbiochem), or vehicle (PBS) was injected subcutaneously twice per week for 5 weeks. Blood samples were collected from the orbital plexus once per week, and hemoglobin levels and hematocrit values were determined as described."}, "EAE in Lewis rats": {"tested_on": "EAE in Lewis rats", "assay": "Experimental autoimmune encephalomyelitis (EAE)", "type": "in vivo", "description": "Experimental autoimmune encephalomyelitis (EAE) was induced as described previously. Briefly, female Lewis rats (200 g) received subcutaneous injections at both sides of the base of the tail with 0.2 mL of an emulsion containing 1 g/L Guinea pig myelin basic protein and 1 g/L M. tuberculosis in Freund's complete adjuvant (all from Sigma-Aldrich). The injections were performed under full inhalation anesthesia. EAE was induced in 30 animals; 6 healthy, age-matched, unimmunized rats were used as controls. Between day 0 and day 21, the weight and clinical signs of EAE were recorded daily for all animals. Clinical signs were scored as follows: 0, no abnormality; 0.5, weak tail; 1, limp tail; 2, mild palsy of one or both hind legs; 3, severe palsy of one or both hind legs; 4, complete paralysis of one or both hind legs; 5, paralysis of one or both hind legs and beginning paralysis of front legs; 6, moribund. Animals with a clinical score ≥4 were sacrificed immediately.\nStarting at day 10 after induction of EAE, animals were treated once/day for 5 consecutive days with Epobis (10 mg/kg, 1 mL/kg, s.c.) or PBS (1.0 mL/kg, s.c.). The control group is identical to the control group of previously published data performed simultaneously with the Epobis study."}, "[5]": {"tested_on": "short-term/working memory of adult rats", "assay": "Social recognition test", "type": "in vivo, rat", "settings": "10 mg/kg single s.c., healthy adult rats", "description": "The social recognition assay evaluates short-term/working memory of adult rats, a type of memory known to be impaired in old (>18 month) rats and in rats experiencing early stage AD [38]. Social recognition in rats was evaluated essentially as described previously. First, a habituation session was carried out; 24 h later, Epobis (10 mg/kg, 1 mL/kg, s.c.) or PBS (1.0 mL/kg, s.c.) was administered, and 1 h later the test animals were introduced to a new, juvenile male rat for 4 min (initial trial). After another 2.5 h the same juvenile rat was reintroduced, or as a control, an unfamiliar juvenile rat was introduced (test trial). To test long-term effects of the peptide, another social recognition test was performed with the initial trial taking place 73 h after administration of test compounds. Data are expressed as a recognition ratio: RR = T2/(T2 + T1), where T1 and T2 are the times spent on investigating the juvenile animal during the initial and the test trial, respectively."}, "EPO receptor": {"biological_target": "EPO receptor", "settings": "surface plasmon resonance; read-out: apparent KD; cited from earlier work", "description": "We have previously designed two synthetic, dendrimeric peptides with sequences corresponding to the first and the second EPO receptor binding site of human EPO, respectively. The peptide derived from binding site 2 was named Epotris and has previously been reported to promote neuritogenesis and neuronal survival in vitro and in vivo in a nonerythropoietic manner and to attenuate status epilepticus. The peptide derived from binding site 1 (residues 36–53 in the structural model of the EPO:EPO receptor-complex; PDB: 1EER [27]) was named Epobis, and surface plasmon resonance analy ..."}, "[6]": {"settings": "biotinylated Epobis, 10 mg/kg single s.c., competitive ELISA, n = 6"}, "[7]": {"settings": "10 mg/kg s.c. once/day for 5 days from day 10, Lewis rats"}},
  "note": "Positions of bridges follow the written chain, without caps; N, C: chain ends. Chains are numbered I, II in the order given. No end group written: not given here.",
  "data": [
    {"substance": "I: NENITVPDTKVNFYAWKRKK-NH2 / II: NENITVPDTKVNFYAWKRK / III: NENITVPDTKVNFYAWKR / IV: NENITVPDTKVNFYAWKR (amide I:19-IV:C, I:20-II:C, II:19-III:C; C-terminus assumed) [Epobis]", "values": [
      {"measurement": "concentration of maximal stimulation of neurite outgrowth", "setting": "primary rat motoneurons", "value": 0.33, "unit": "µM"},
      {"measurement": "L-cell viability relative to control (highest)", "setting": "[1]; conditioned medium from IFN-γ-activated AMJ2-C8 macrophages pretreated 24 h with 2.7 μM Epobis, p < 0.05", "value": "~ 68%"},
      {"measurement": "LPS-induced TNF secretion from microglia", "setting": "[2]", "value": "significant decrease"},
      {"measurement": "plasma : CSF ratio", "setting": "[3]; 2 h after single s.c. 10 mg/kg", "value": "approximately 20"},
      {"measurement": "time of peak plasma concentration", "setting": "[3]; [6]", "value": "around 2 h"},
      {"measurement": "time the peptide remained detectable in blood", "setting": "[3]; [6]", "value": "at least 24 h"},
      {"measurement": "effect on hematocrit", "setting": "[4]", "value": "did not cause any statistically significant increases"},
      {"measurement": "effect on hemoglobin levels", "setting": "[4]", "value": "did not cause any statistically significant increases"},
      {"measurement": "effect on survival of EAE animals versus vehicle", "setting": "EAE in Lewis rats; [7]", "value": "no significant effects"},
      {"measurement": "effect on weight changes of EAE animals versus vehicle", "setting": "EAE in Lewis rats; [7]", "value": "no significant effects"},
      {"measurement": "activated microglia in the brain stem of EAE animals, Epobis versus vehicle", "setting": "EAE in Lewis rats; 10 mg/kg s.c. once/day for 5 days from day 10, immunohistochemistry", "value": "no difference"},
      {"measurement": "clinical signs of EAE versus vehicle, later time points", "setting": "EAE in Lewis rats; 10 mg/kg s.c. once/day for 5 days from day 10, n = 10", "value": "not significantly different"},
      {"measurement": "clinical signs of EAE versus vehicle, day 2 after onset", "setting": "EAE in Lewis rats; 10 mg/kg s.c. once/day for 5 days from day 10, n = 10, p < 0.05", "value": "significantly lower"},
      {"measurement": "recognition ratio (RR) versus vehicle, test 73 h after administration", "setting": "[5]; n = 12, t-test p < 0.018, different from 0.5 p < 0.0001", "value": "significantly lower"},
      {"measurement": "recognition ratio (RR) versus vehicle, test 1 h after administration", "setting": "[5]; n = 12, t-test p > 0.05", "value": "no significant difference"},
      {"measurement": "Kd", "setting": "EPO receptor", "value": "~60", "unit": "nM"}
    ]},
    {"substance": "erythropoietin [EPO]", "values": [
      {"measurement": "L-cell viability relative to control", "setting": "[1]; conditioned medium from IFN-γ-activated AMJ2-C8 macrophages pretreated 24 h with 8.4 nM EPO", "value": "~ 64%"},
      {"measurement": "effect on hematocrit", "setting": "[4]", "value": "statistically significant increases"},
      {"measurement": "effect on hemoglobin levels", "setting": "[4]", "value": "statistically significant increases"}
    ]}
  ]
}
